Data set [1] concerns p38. The data set can be described thus: Western blot of p38 phosphorylation in THP-1 cells. The note with it: THP-1, 10 or 25 μM SB203580 1 h prior to 50 μM apigenin for 3 h. Format: cell-based, human.
Procedure: A. THP-1 cells were treated with 50 μM apigenin for various lengths of time. Lysates were separated by SDS-PAGE, transferred and analyzed by immunoblots with anti-phospho-p38 (pp 38) and anti-total-p38 antibodies. B. THP-1 cells were treated for 6 hr with 50 μM apigenin alone (lane 2), treated with the apigenin diluent (lane 1), pretreatred with 10 or 25 μM SB203580 for 1 hr prior to the addition of apigenin (lanes 3 and 4) or with the SB203580 inhibitor alone (lanes 5 and 6).
Extracts from 3×10^6 cells were prepared by incubating cells for 30 min on ice in lysis buffer (50 mM Tris, 10 mM EDTA 0.5% NP-40, 10 mM Na-glycerophosphate, 5 mM Na-pyrophosphate, 50 mM NaF, 1 mM orthovanadate, 1 mM DTT, 0.1 mM PMSF, 2 μg/ml of protease inhibitors: chymostatin, pepstatin, antipain, and leupeptin). Cell lysates were centrifuged (14,000×g for 10 min at 4° C.) and the supernatants were stored for at −70° C. for future analysis. Equal amounts of protein were loaded and separated by SDS-PAGE, transferred onto nitrocellulose membranes and probed with antibodies of interest followed by horseradish peroxidase conjugated secondary antibody and visualized by enhanced chemiluminescence (Amersham, Arlington Heights, Ill.). […]
In data set [2] the test system is THP-1 cells. As to the kind of experiment: Cell survival and apoptosis by calcein AM/PI staining. The class given is cell-based, human. The protocol: FIG. 2. Apigenin induces cell death in monocytic leukemia cells. THP-1 and U937 leukemia cells were treated for various lengths of time with 50 μM apigenin or left untreated (NT) and stained with calcein AM and PI as described in Material and Methods to evaluate the percentage of cell survival. (A) THP cells after 12 h cells treated with 50 μM apigenin or with DMSO (NT). (B) The percentage of cell survival represented by means ±SEM (N=3).
(§1) FIG. 4. Caspase-3 activation is required for apigenin-induced apoptosis. THP-1 cells were treated for 12 h with 50 μM apigenin alone or pretreated with 20 μM DEVD-FMK for 1 h prior to the addition of apigenin. (A) Cells were then stained with calcein AM and 24 PI and the percentage of apoptotic cells was determined. (B) Lysates from cells treated as described above were used to determined caspase-3 activity by the DEVD-AFC assay. All data represents means ±SEM (N=5).
(§2) FIG. 7. Apigenin induced p38 activation is not required for apoptosis. A. Cells were pretreated for 1 h prior to addition of 50 μM apigenin or DMSO (−) with 10 or 25 μM concentrations of SB203580 or DMSO (−) for 12 h. The percentage of apoptotic cells was determined by calcein AM with PI stained cells. Data represents means ±SEM (N=5 p>0.05). B. Lysates from the same treatments were used to determined caspase-3 activity by the DEVD-AFC assay. Data represents means ±SEM (N=5 p>0.05).
To investigate apoptosis, cells were plated at a density of 1×10^6 cells/well. After treatment, cells were collected and washed in PBS. Cells were then incubated in RPMI (no phenol red) and 1 μg/ml calcein AM for 30 min and 5×10−2 ng/ml propidium iodide (PI) for 5 min. Cells were washed twice and resuspended in PBS. Cells were viewed using a fluorescent microscope (Olympus, Melville, N.Y.). At least 200 cells were counted. Cells calcein AM positive (green) in the absence of PI (red) were considered alive while cells undergoing apoptosis are green with red. Number of green cells or green with red cells was counted over total number of cells (green alone and green with red) to express cell survival or apoptotic cell percentage respectively.

In data set [3] the test system is Akt. The data set can be described thus: Western blot of Akt phosphorylation and total Akt in THP-1 cells. Format: cell-based, human. The note with it: THP-1, 10 or 25 μM SB203580 1 h prior to 50 μM apigenin for 3 h. On the procedure: FIG. 5. Apigenin affects Akt phosphorylation. THP-1 cells were treated with 50 μM apigenin for different lengths of time. Lysates were separated by SDS-PAGE, transferred and immunoblotted with anti-phospho-Akt (pSer 473), anti-phospho-Akt (pThr 308), total Akt, and â-tubulin antibodies.
FIG. 6. Apigenin induces the activation of p38 and inactivation of Akt. A. THP-1 cells were treated with 50 μM apigenin for various lengths of time. Lysates were separated by SDS-PAGE, transferred and analyzed by immunoblots with anti-phospho-p38 (pp 38) and anti-total-p38 antibodies. B. […] Lysates were analyzed by immunoblotting with anti-phospho-Akt (pSer 473), anti-phospho-p38 (p-p38), and anti-total-p38 antibodies.
Extracts from 3×10^6 cells were prepared by incubating cells for 30 min on ice in lysis buffer (50 mM Tris, 10 mM EDTA 0.5% NP-40, 10 mM Na-glycerophosphate, 5 mM Na-pyrophosphate, 50 mM NaF, 1 mM orthovanadate, 1 mM DTT, 0.1 mM PMSF, 2 μg/ml of protease inhibitors: chymostatin, pepstatin, antipain, and leupeptin). Cell lysates were centrifuged (14,000×g for 10 min at 4° C.) and the supernatants were stored for at −70° C. for future analysis. Equal amounts of protein were loaded and separated by SDS-PAGE, transferred onto nitrocellulose membranes and probed with antibodies of interest followed by horseradish peroxidase conjugated secondary antibody and visualized by enhanced chemiluminescence (Amersham, Arlington Heights, Ill.). Phospho-Ser473-Akt, phospho-Thr308-Alt, total AKT, phospho-p38 and total p38 antibodies were obtained from Cell Signaling (Boston, Mass.). â-tubulin antibody was obtained from Upstate (Charlottesville, Va.).

Data set [4] concerns caspase-3. The data set can be described thus: Caspase-3 activity, DEVD-AFC assay, THP-1 lysates. Format: cell-based, human. The protocol: FIG. 3. Apigenin induces caspase activation in monocytic leukemia. THP-1 (top) and U937 (bottom) leukemia cells were treated for various lengths of time with 50 μM apigenin or DMSO (NT). (A and C) Caspase-9 activity was determined by the LEHDAFC assay. (B and D) Caspase-3 activity was determined by the DEVD-AFC assay. Data represents means ±SEM (N=3).
as §1, §2
For measurements of caspase activity, cells were plated at a density of 1.5×10^6 cells/well. After treatment, cells extracts were prepared as previously described (Doseff, A. I., Baker J. H., Bourgeois T. A. and Wewers M. D. (2003) Interleukin-4-induced zpoptosis entails caspase activation and suppression of extracellular signal-regulated kinase phosphorylation. Am. J. Resp. Cell Mol. Biol., 29, 367-374). […] Levels of released AFC were measured using Cytofluor 400 fluorimeter (Filters: excitation 400 nm, emission 508 nm; Perspective Co., Framingham, Mass.).

In data set [5] the test system is A549 cells. As to the kind of experiment: Cell viability assay (CellTiter 96 / MTT, A490). Format: cell-based. The settings on record: A549, up to 500 μM naringenin, 24 h; reduced by. The protocol:
(§3) FIG. 1. Effect of apigenin and naringenin in cell survival of cancer cells. (A) Structure of the flavonoids apigenin and naringenin. (B) THP-1, U937, A549, and MCF-7 cells were treated with various doses of apigenin or naringenin for 24 h. After the treatment, the percentage of cell proliferation was calculated as the ratio of treated cells to control cells as determined by the MTT method (A490). Data represents means ±SEM (N=9). […] Cells were plated at a density of 2×10^4 cells/well into 96-well plates and treated with flavonoids at indicated concentrations for 24 h. Absorbance at 490 nm (A490) was recorded using an ELISA plate reader (Bio-Tek ELx800, KC Junior, Winooski, Vt.).

Data set [6] deals with MCF-7 cells. As to the kind of experiment: Cell viability assay (CellTiter 96 / MTT, A490). The class given is cell-based. The settings on record: MCF-7, up to 500 μM naringenin, 24 h; reduced by. The protocol: as §3
For data set [7], the system named is THP-1 cells.
Data set [8] relates to U937 cells. As to the kind of experiment: Cell viability assay (CellTiter 96 / MTT, A490). Format: cell-based, human. The settings on record: U937, 500 μM naringenin, 24 h; reduced to. On the procedure: as §3
Data set [9] deals with THP-1 cells. As to the kind of experiment: Cell viability assay (CellTiter 96 / MTT, A490). Format: cell-based, human. The note with it: THP-1, 500 μM naringenin, 24 h; reduced to. On the procedure: as §3
Where [10] appears, read: THP-1, 20 μM DEVD-FMK 1 h prior to 50 μM apigenin for 12 h.

A value given as a limit tells only on which side of the number the result lay.

For `C[S+]([O-])c1ccc(-c2nc(-c3ccncc3)c(-c3ccc(F)cc3)[nH]2)cc1` (centres unmarked) [SB203580, reference compound], the “apigenin-induced p38 phosphorylation” value in [1] is reported as “significantly reduced”. The “number of apoptotic cells induced by apigenin” value in data set [2] (THP-1, SB203580 (10 or 25 μM) 1 h prior to 50 μM apigenin, 12 h, vs apigenin alone, P>0.05) is given as “did not result in a reduction”. Moreover, the “Akt phosphorylation at Ser473” value in data set [3] is reported as “increase”. The caspase-3 activity result in data set [4] (THP-1, SB203580 and 50 μM apigenin vs apigenin alone, P>0.05) is “similar”.

For the compound `O=C1C[C@@H](c2ccc(O)cc2)Oc2cc(O)cc(O)c21` [naringenin, reference compound], the “reduction of cell proliferation” value in [5] and in data set [6] was 20% each time. Further, in data set [7], the “conversion to another chemical entity in treated cells” value is “neither one of these two compounds is significantly converted”. Further, the “cell proliferation (ratio of treated to control cells)” value in data set [8] and in data set [9] was 60% in each case.

“DEVD-FMK: caspase-3 inhibitor obtained from Enzyme System Products [reference compound]”: in data set [2] (setting [10]), the apoptotic cells was less than 10%. In addition, the “effect on apigenin-induced caspase-3 activity” value in [4] (setting [10]) is on record as “inhibited the apigenin-induced activation of caspase-3 to the levels observed in untreated cells”.
